Values quoted from earlier work as cited in patent publication US20230374563A1, “Methods for Antimicrobial Susceptibility Testing” (MicrobeDX, Inc., priority 2017, published 2023).
≈ marks a conversion by molar mass, not a printed value.

Tested on: bacteria
Conditions: for CLSI MIC Cutoffs for (Urine) AST Determination I / MIC Criteria CLSI M100 (2018) I: Intermediate; for CLSI MIC Cutoffs for (Urine) AST Determination R / MIC Criteria CLSI M100 (2018) R: Resistant; for CLSI MIC Cutoffs for (Urine) AST Determination S / MIC Criteria CLSI M100 (2018) S: Susceptible; for MIC Criteria CLSI M100 (2018) S: cefazolin cutoffs for cases not identified as uncomplicated

Row | Molecule | CLSI MIC Cutoffs for (Urine) AST Determination I | CLSI MIC Cutoffs for (Urine) AST Determination R | CLSI MIC Cutoffs for (Urine) AST Determination S | MIC Criteria CLSI M100 (2018) I [µg/mL] | MIC Criteria CLSI M100 (2018) R [µg/mL] | MIC Criteria CLSI M100 (2018) S [µg/mL]
1 | NCC[C@H](O)C(=O)N[C@@H]1C[C@H](N)[C@@H](O[C@H]2O[C@H](CN)[C@@H](O)[C@H](O)[C@H]2O)[C@H](O)[C@H]1O[C@H]1O[C@H](CO)[C@@H](O)[C@H](N)[C@H]1O [Amikacin] | 32 µg/mL | ≥64 µg/mL | ≤16 µg/mL | – | – | –
2 | CC1(C)S[C@@H]2[C@H](NC(=O)[C@H](N)c3ccccc3)C(=O)N2[C@H]1C(=O)O [Ampicillin] | 16 µg/mL | ≥32 µg/mL | <8 µg/mL | 16 (≈ 45.8 µM) | ≥32 | ≤8
3 | CO/N=C(\C(=O)N[C@@H]1C(=O)N2C(C(=O)O)=C(CSc3nc(=O)c(=O)[nH]n3C)CS[C@H]12)c1csc(N)n1 [Ceftriaxone] | 2 µg/mL | ≥4 µg/mL | ≤1 µg/mL | 2 (≈ 3.61 µM) | ≥4 | ≤1
4 | C[C@@H](O)[C@H]1C(=O)N2C(C(=O)O)=C(S[C@@H]3CN[C@H](C(=O)Nc4cccc(C(=O)O)c4)C3)[C@H](C)[C@H]12 [Ertapenem] | 1 µg/mL | ≥2 µg/mL | ≤0.5 µg/mL | – | – | –
5 | C[C@@H]1O[C@@H]1P(=O)(O)O [Fosfomycin] | 128 µg/mL | ≥256 µg/mL | ≤64 µg/mL | – | – | –
6 | C[C@@H](O)[C@H]1C(=O)N2C(C(=O)O)=C(S[C@@H]3CN[C@H](C(=O)N(C)C)C3)[C@H](C)[C@H]12 [Meropenem] | 2 µg/mL | ≥4 µg/mL | ≤1 µg/mL | – | – | –
7 | Amoxicillin/Clavulanate [Amox/Clav] | 16/8 | ≥32/16 | ≤8/4 | – | – | –
8 | Gentamicin | 8 µg/mL | ≥16 µg/mL | ≤4 µg/mL | – | – | –
9 | Piperacillin/Tazobactam [Pip/Tazo] | – | ≥128/4 | ≤16/4 | – | – | –
10 | Trimethoprim/Sulfamethoxazole [TMP/SMX] | – | ≥4/76 | ≤2/38 | – | – | –
